According to patent publication US20210282399A1, “FUNGICIDAL COMPOSITION” (priority 2018, published 2021):
Several values for one entry are separate records, joined by “and”; a condition that tells them apart may be missing. Equal entries are not always repeated.

Columns and labels:
Phakopsora pachyrhizi [1] = assay: Field fungicide tests for Asian soybean rust on soybean, Brazil; assay type: in vivo; conditions: soybean field plots, three foliar applications; fenpropidin 75-300 g a.i./ha; FIGS. 1 and 2
Procedure: The experiments for fungicide tests for Asian soybean rust (Phakopsora pachyrhizi) were carried out at Experimental Stations in different regions of Brazil. Each plot consisted of at least 15.0 m^2 (3.0 m×5.0 m). The experimental design was a randomized block design with four replicates, using soybean varieties adapted to each region. Three applications of foliar treatments were carried out at 10 to 15 day intervals, depending on the soybean rust pressure at each site. The applications were made with backpack sprayer pressurized with CO^2 set to apply 150 L. ha-1 of spray volume and 0.460 L/min per nozzle. […] The applications of the treatments were performed when the soybean was in stages 60 (First flowers opened (sporadically in population), 72 (About 20% of pods have reached final length (15-20 mm)) and 79 (Approx. pods have reached final length (15-20 mm), seeds filling the cavity of the majority of pods) of the BBCH international scale, respectively. The results were evaluated prior to the application of the treatments, and at 7, 14 and 21, 28 and 35 days after the first application through the visual evaluation of the percentage of disease severity per plot. The harvest was evaluated at a minimum of 5.0 m^2 per plot, and the data were transformed into kg·ha-1.

Phakopsora pachyrhizi [2] = assay: Flow cytometric assay of fungicide efficacy on Phakopsora pachyrhizi urediniospores (healthy vs dead spores, metabolic activity); Wadley and Colby evaluation; assay type: cell-based; conditions: for EC50 (Mean) / EC50: based on perturbation of the metabolic activity
Excerpt: in which E represents the expected effect, e.g. percentage of pest control, for the combination of the three active ingredient at defined doses (for example equal to x, y and z respectively), X is the effect, e.g. percentage of pest control, observed for compound (I) at a defined dose (equal to x), Y is the effect, e.g. percentage of pest control, observed for compound (II) at a defined dose (equal to y), Z is the effect, e.g. percentage of pest control, observed for compound (III) at a defined dose (equal to z). When the effect, e.g. percentage of pest control, observed for the combination is greater than the expected effect, there is a synergistic effect. The ratio of observed action (Eobs) and expected action (Eexp), i.e. Eobs/Eexp expresses the factor of interaction level (R) which may be interpreted in accordance with Table 1a below.
In the Wadley method, synergistic activity is determined from dose response curves. With this method, the efficacy of the active ingredient (“a.i.”) is determined by comparing the degree of fungal attack on treated plants with that on untreated, similarly inoculated and incubated check plants. Each a.i. is generally tested at multiple. (e.g., 6) concentrations, and dose response curves are generated. The dose response curves are used to establish the EC50 (i.e., the effective concentration of a.i. providing 50% disease control) of the individual compounds as well as of the combinations (EC50Observed). The experimentally found values of the mixture at a given weight ratio are compared with the values that would have been found were only a complementary efficacy of the components was present as follows:
ECtheo=(a+b)/[(a/ECA)+(b/ECB)]
ECtheo=(a+b+c)/[(a/ECA)+(b/ECB+(c/ECC)]
The ratio EC50 (A+B)Theo/EC50(A+B)observed expresses the factor of interaction level (R) which may be interpreted in accordance with Table 1b below.
Soybean rust, caused by Phakopsora pachyrhizi, is one of the most important foliar diseases of soybean worldwide. Seed of soybean were sown in pots in a loam-vermiculite soil mix and placed inside a growth chamber maintained at 18° C./26° C. night/day and 60 to 70% RH with 16 h of light for 3 weeks.
First leaves were harvested and placed in Petri dishes on 1% water agar. A spore suspension (1×10^5 spores/ml of water) were prepared from infected leaf samples and was sprayed on leaf pieces using an atomizer attached to an air compressor. Petri dishes containing leaf pieces were incubated inside a growth chamber maintained at 18° C./26° C. night/day and 60 to 70% RH with 16 h of light during 2-3 weeks. Urediniospores (1×10^5 spores/ml of water) were harvested from infected leaf samples and equal volumes of spore suspension and fungicide diluted in water were mixed in 96 well plate. Spores are stained by two fluorescent dyes, one which stained dead spores and a one for which intensity of staining is directly correlated to metabolic activity.
Flow cytometric analyses were performed on a CyFlow Cube 8 equipped with an autoloading station (Sysmex Partec GmbH, Gorlittz, Germany). The fluorescences were collected for 2000 to 3000 spores per well and were used to discriminate: (i) healthy spores and (ii) dead spores. The fungicide efficacies were then calculated from the percentage of healthy spores in control condition and in treated condition.
The EC50 is based the perturbation of the metabolic activity.

Compound: CC(Cc1ccc(C(C)(C)C)cc1)CN1CCCCC1 (racemic) [Technical Fenpropidin, (±)-1-[3-[4-(1,1-dimethylethyl)phenyl]-2-methylpropyl]piperidine]
- effectiveness against Phakopsora pachyrhizi (Phakopsora pachyrhizi [1]): effective
- Efficacy % (Phakopsora pachyrhizi [2]; Fenpropidin dose 0.002304 ppm): 10.17%
- Efficacy % (Phakopsora pachyrhizi [2]; Fenpropidin dose 0.01152 ppm): 18.55%
- EC50 (Mean) (Phakopsora pachyrhizi [2]; mean of Exp 1-3): >7.2 ppm
- EC50 (Phakopsora pachyrhizi [2]; single experiments Exp 1-3): >7.2 ppm
- % of efficiency, Mean (Phakopsora pachyrhizi [2]; dose 0.0004608 ppm, mean of Exp 1-3): 15.65%
- % of efficiency, Mean (Phakopsora pachyrhizi [2]; dose 0.002304 ppm, mean of Exp 1-3): 10.17%
- % of efficiency, Mean (Phakopsora pachyrhizi [2]; dose 0.01152 ppm, mean of Exp 1-3): 18.55%
- % of efficiency, Mean (Phakopsora pachyrhizi [2]; dose 0.0576 ppm, mean of Exp 1-3): 12.90%
- % of efficiency (Phakopsora pachyrhizi [2]; dose 0.0576 ppm, single experiments Exp 1-3): 10.9% and 12.4% and 15.5%
- % of efficiency, Mean (Phakopsora pachyrhizi [2]; dose 0.288 ppm, mean of Exp 1-3): 13.31%
- % of efficiency (Phakopsora pachyrhizi [2]; dose 0.288 ppm, single experiments Exp 1-3): 15.4% and 9.9% and 14.6%
- % of efficiency, Mean (Phakopsora pachyrhizi [2]; dose 1.44 ppm, mean of Exp 1-3): 16.42%
- % of efficiency, Mean (Phakopsora pachyrhizi [2]; dose 7.2 ppm, mean of Exp 1-3): 16.74%
- EC50 (in 2018) (Phakopsora pachyrhizi [2]; value in brackets, 'in 2018'): (88.916 ppm in 2018)

Compound: Mancozeb [Formulated Mancozeb]
- Efficacy % (Phakopsora pachyrhizi [2]; Mancozeb dose 0.0128 ppm): 33.27%
- Efficacy % (Phakopsora pachyrhizi [2]; Mancozeb dose 0.064 ppm): 50.68%
- EC50 (Mean) (Phakopsora pachyrhizi [2]; mean of Exp 1-3): <>0.042 ppm
- EC50 (Phakopsora pachyrhizi [2]; single experiments Exp 1-3): <>0.037 ppm and <>0.058 ppm and <>0.032 ppm
- % of efficiency, Mean (Phakopsora pachyrhizi [2]; dose 0.00256 ppm, mean of experiments): 11.22%
- % of efficiency, Mean (Phakopsora pachyrhizi [2]; dose 0.0128 ppm, mean of experiments): 33.27%
- % of efficiency (Phakopsora pachyrhizi [2]; dose 0.0128 ppm, single experiments): 39.9% and 26.2% and 33.7%
- % of efficiency, Mean (Phakopsora pachyrhizi [2]; dose 0.064 ppm, mean of experiments): 50.88%
- % of efficiency (Phakopsora pachyrhizi [2]; dose 0.064 ppm, single experiments): 59.2% and 43.2% and 49.7%
- % of efficiency, Mean (Phakopsora pachyrhizi [2]; dose 0.32 ppm, mean of experiments): 88.10%
- % of efficiency (Phakopsora pachyrhizi [2]; dose 0.32 ppm, single experiments): 80.8% and 94.2% and 89.3%
- % of efficiency, Mean (Phakopsora pachyrhizi [2]; dose 1.6 ppm, mean of experiments): 95.20%
- % of efficiency (Phakopsora pachyrhizi [2]; dose 1.6 ppm, single experiments): 93.6% and 98.7% and 93.2%
- % of efficiency, Mean (Phakopsora pachyrhizi [2]; dose 8 ppm, mean of experiments): 94.99%
- % of efficiency (Phakopsora pachyrhizi [2]; dose 8 ppm, single experiments): 89.4% and 98.9% and 96.6%
- % of efficiency, Mean (Phakopsora pachyrhizi [2]; dose 40 ppm, mean of experiments): 96.58%
- % of efficiency (Phakopsora pachyrhizi [2]; dose 40 ppm, single experiments): 92.3% and 99.5% and 97.8%

Compound: OC(Cc1ccccc1Cl)(Cn1cncn1)C1(Cl)CC1 (stereo not shown) [Desthio-prothiconazole, Desthio-prothioconazole]
- Efficacy % (Phakopsora pachyrhizi [2]; Desthio-prothioconazole dose 0.004544 ppm): 38.49%
- Efficacy % (Phakopsora pachyrhizi [2]; Desthio-prothioconazole dose 0.02272 ppm): 49.44%

Compound: Cn1cc(C(=O)Nc2ccccc2-c2cc(F)c(F)c(F)c2)c(C(F)F)n1 [Technical Fluxapyroxad, Fluxapyroxad]
- Efficacy % (Phakopsora pachyrhizi [2]; Fluxapyroxad dose 0.000576 ppm): 15.24%
- Efficacy % (Phakopsora pachyrhizi [2]; Fluxapyroxad dose 0.00288 ppm): 24.72%
- EC50 (Mean) (Phakopsora pachyrhizi [2]; mean of Exp 1-3): <>0.202 ppm
- EC50 (Phakopsora pachyrhizi [2]; single experiments Exp 1-3): <>0.190 ppm and <>0.214 ppm and <>0.202 ppm
- % of efficiency, Mean (Phakopsora pachyrhizi [2]; dose 0.0001152 ppm, mean of Exp 1-3): 19.26%
- % of efficiency, Mean (Phakopsora pachyrhizi [2]; dose 0.000576 ppm, mean of Exp 1-3): 15.24%
- % of efficiency, Mean (Phakopsora pachyrhizi [2]; dose 0.00288 ppm, mean of Exp 1-3): 24.72%
- % of efficiency (Phakopsora pachyrhizi [2]; dose 0.00288 ppm, single experiments Exp 1-3): 18.6% and 37.0%
- % of efficiency, Mean (Phakopsora pachyrhizi [2]; dose 0.0144 ppm, mean of Exp 1-3): 18.40%
- % of efficiency, Mean (Phakopsora pachyrhizi [2]; dose 0.072 ppm, mean of Exp 1-3): 29.12%
- % of efficiency (Phakopsora pachyrhizi [2]; dose 0.072 ppm, single experiments Exp 1-3): 28.8% and 28.6% and 29.9%
- % of efficiency, Mean (Phakopsora pachyrhizi [2]; dose 0.36 ppm, mean of Exp 1-3): 59.74%
- % of efficiency (Phakopsora pachyrhizi [2]; dose 0.36 ppm, single experiments Exp 1-3): 61.7% and 52.3% and 65.2%
- % of efficiency, Mean (Phakopsora pachyrhizi [2]; dose 1.8 ppm, mean of Exp 1-3): 80.82%
- % of efficiency (Phakopsora pachyrhizi [2]; dose 1.8 ppm, single experiments Exp 1-3): 88.5% and 83.4% and 70.6%
